Test results published in patent US11591476B2, “In-vivo probe for real time longitudinal monitoring of inducible nitric-oxide synthase in living cells and animals” (priority 2016, dated 2023).

Assay: Fluorescence excitation and emission maxima of the probes
Type: physicochemical
Description: The probe of the present disclosure can selectively bind iNOS enzyme and produce a perceptible change in fluorescence upon binding.

emission wavelength: 630 nm
maximum excitation wavelength: 610 nm
SMILES: CN1c2cc3c(cc2C(CS(=O)(=O)[O-])=CC1(C)C)C(c1c(Cl)c(SCC(=O)NCCCCCC(=O)N2CCN(c4ccnc(-n5ccnc5)n4)C(CC(=O)NCc4ccc5c(c4)OCO5)C2)c(Cl)c(Cl)c1C(=O)O)=c1cc2c(cc1O3)=[N+](C)C(C)(C)C=C2CS(=O)(=O)O (centres unmarked) [PIA-610, Pyrimidine Imidazole Alexa-Fluor-610]
